Common to all, as to format: functional, organism-based
Test [1] has as its system Enterovirus. Description: Antiviral activity against Human enterovirus CVA16 infected in Vero cells after 4 to 7 days by plaque reduction assay.
The test system of test [2] is Enterovirus. Description: Antiviral activity against Human enterovirus CVB1 infected in Vero cells after 4 to 7 days by plaque reduction assay. For orientation: In a plaque reduction assay, fewer plaques than in the control indicate reduced infectivity or spread.
Test [3] concerns Enterovirus. Description: Antiviral activity against Human enterovirus CVB2 infected in Vero cells after 4 to 7 days by plaque reduction assay.
Test [4] concerns Enterovirus. Description: Antiviral activity against Human enterovirus CVB4 infected in Vero cells after 4 to 7 days by plaque reduction assay.
Test [5] has as its system Enterovirus. Description: Antiviral activity against Human enterovirus Echo9 infected in Vero cells after 4 to 7 days by plaque reduction assay.
The test system of test [6] is Enterovirus. Description: Antiviral activity against Human enterovirus EV71 infected in human HeLa cells after 2 to 4 days by formazan dye reduction assay.
Test [7] relates to Enterovirus. Description: Antiviral activity against Human enterovirus CVA16 infected in human HeLa cells after 2 to 4 days by formazan dye reduction assay.
The subject of test [8] is Enterovirus. Description: Antiviral activity against Human enterovirus CVB1 infected in human HeLa cells after 2 to 4 days by formazan dye reduction assay.
Test [9] relates to Enterovirus. Description: Antiviral activity against Human enterovirus CVB2 infected in human HeLa cells after 2 to 4 days by formazan dye reduction assay.
The test system of test [10] is Enterovirus. Description: Antiviral activity against Human enterovirus CVB4 infected in human HeLa cells after 2 to 4 days by formazan dye reduction assay.
Test [11] deals with Enterovirus. Description: Antiviral activity against Human enterovirus Echo9 infected in human HeLa cells after 2 to 4 days by formazan dye reduction assay.
Test [12] relates to Enterovirus. Description: Antiviral activity against Human enterovirus EV71 infected in Vero cells after 4 to 7 days by plaque reduction assay.
The subject of test [13] is Enterovirus. Description: Antiviral activity against Human enterovirus EV71 infected in human HeLa-G3CwtR cells after 36 to 48 hrs by FRET assay.
Test [14] relates to Enterovirus. Description: Antiviral activity against Human enterovirus CVA16 infected in human HeLa-G3CwtR cells after 36 to 48 hrs by FRET assay.
The subject of test [15] is Enterovirus. Description: Antiviral activity against Human enterovirus CVB1 infected in human HeLa-G3CwtR cells after 36 to 48 hrs by FRET assay.
Test [16] has as its system Enterovirus. Description: Antiviral activity against Human enterovirus CVB2 infected in human HeLa-G3CwtR cells after 36 to 48 hrs by FRET assay.
Test [17] concerns Enterovirus. Description: Antiviral activity against Human enterovirus CVB4 infected in human HeLa-G3CwtR cells after 36 to 48 hrs by FRET assay.
Test [18] concerns Enterovirus. Description: Antiviral activity against Human enterovirus Echo9 infected in human HeLa-G3CwtR cells after 36 to 48 hrs by FRET assay.

For the compound `CCOC(=O)/C=C/[C@H](C[C@@H]1CCNC1=O)NC(=O)[C@@H](CC(=O)[C@@H](NC(=O)c1cc(C)on1)C(C)C)Cc1ccc(F)cc1` [RUPINTRIVIR], the EC50 with Enterovirus [1] was 0.419 µM; in the test with Enterovirus [2], 1.73 µM; with Enterovirus [3] it was 0.982 µM; in the test on Enterovirus [4], 0.843 µM; with Enterovirus [5] it was 0.481 µM; in the test with Enterovirus [6], 0.561 µM. The concentration for a half-maximal effect (EC50) with Enterovirus [7] stood at 0.27 µM; in the test with Enterovirus [8], 1.25 µM; in the test with Enterovirus [9] it was 0.783 µM; in the test with Enterovirus [10], 0.372 µM; in the test with Enterovirus [11] it was 0.36 µM; in the test on Enterovirus [12], 0.791 µM. Further, the EC50 worked out at 0.781 µM in the test with Enterovirus [13]; 0.331 µM in the test with Enterovirus [14]; 1.64 µM with Enterovirus [15]; 0.857 µM in the test with Enterovirus [16]; 0.877 µM in the test on Enterovirus [17]; 0.434 µM in the test with Enterovirus [18].

As usually defined, the EC50 is the concentration that produces a half-maximal response.

The values above are taken from ChEMBL document CHEMBL1629592, “Real-time monitoring of human enterovirus (HEV)-infected cells and anti-HEV 3C protease potency by fluorescence resonance energy transfer” (Antimicrob Agents Chemother, 2009).
